The subject of this experiment is mutant Paracoccus sp. strain Y-1071. Kind of experiment: Glutamate supplementation, 5 L fermentation tank culture, carotenoid by HPLC. The class given is cell-based. As for the experimental part: In the examples, carotenoids were quantified by high performance liquid chromatography (HPLC) as follows.
Two columns of Wakosil-II 5 SIL-100 (φ4.6×250 mm) (Wako Pure Chemical Industries, Ltd., Japan) were connected to each other for use as a column. Elution was performed by flowing an n-hexane-tetrahydrofuran-methanol mixed solution (40:20:1), which was a mobile phase, at a flow rate of 1.0 mL/minute at a constant temperature around room temperature. The measurement was performed as follows. Samples were each dissolved in tetrahydrofuran and then diluted 100-fold with the mobile phase. Each dilution was injected in a volume of 20 μL. The column eluate was detected at a wavelength of 470 nm. As a reference for quantification, astaxanthin (SIGMA, Cat. No. A9335) was used. The astaxanthin concentration of the reference solution was determined using the following equation after measuring the absorbance (A) of the reference solution at 477 nm and the area percentage % (B) of the astaxanthin peak at the time of HPLC analysis under the above conditions. Astaxanthin concentration (mg/L)=A/2150×B×100
A medium of the following composition (sucrose 20 g/L, filtered corn steep liquor 5 g/L, potassium dihydrogenphosphate 0.54 g/L, dipotassium hydrogenphosphate 12-hydrate 2.78 g/L, calcium chloride dihydrate 5.0 g/L, magnesium sulfate 7-hydrate 0.7 g/L, iron sulfate 7-hydrate 3.0 g/L, fatty acid-based defoaming agent 0.2 g/L, […]) was dispensed in 100 ml volumes into 500 mL cotton-plugged Erlenmeyer flasks and sterilized in an autoclave at 121° C. for 15 minutes to prepare a flask medium for seed culture in 2 flasks,
Next, a medium of the following composition (sucrose 40 g/L, corn steep liquor 30 g/L, ammonium sulfate 0.5 g/L, potassium dihydrogenphosphate 2.25 g/L, disodium hydrogenphosphate 12-hydrate 5.7 g/L, calcium chloride dihydrate 0.1 g/L, magnesium sulfate 7-hydrate 0.5 g/L, iron sulfate 7-hydrate 5 g/L, fatty acid-based defoaming agent 0.5 g/L) was dispensed in 2.0 L volumes into 5 L fermentation tanks (2 tanks in total). One of the fermentation tanks was supplemented with monosodium L-glutamate monohydrate to 50 mmol/L, while the other was supplemented with nothing as a control. These fermentation tanks were sterilized in an autoclave at 121° C. for 30 minutes,
A loopful of the mutant Paracoccus sp, strain Y-1071 selected in Example 3 was inoculated into the flask medium for seed culture and then cultured with rotary shaking at 28° C. for 2 days at 150 rpm. The resulting culture solution was then inoculated in 80 mL volumes into the individual fermentation tanks, followed by aerobic culture at 28° C. at an aeration volume of 1 vvm for 120 hours. […] during culture, the pH was continuously controlled with 15% aqueous ammonia. Glucose was added in an amount of 30 g on day 1, day 2 and day 3 of culture to prevent glucose depletion. The minimum number of agitation rotations was set to 100 rpm, and the number of agitation rotations was varied such that the dissolved oxygen concentration in the culture solution was maintained at 2 to 3 ppm. Bubbling was detected with a bubble sensor and suppressed by automatic addition of a fatty acid-based defoaming agent.
At the completion of culture, each culture solution was measured for its carotenoid concentration by HPLC.

Setting [1] is: Glutamic acid concentration 50 mmol/L, 120 hours.

Turning to `N[C@@H](CCC(=O)O)C(=O)O` [Glutamic acid, glutamic acid], where the note is “50 mmol/L”, the “produced carotenoid concentration compared to the sample without glutamic acid” value is listed as “higher produced carotenoid concentration”. Under setting [1], this molecule showed a 3-Hydroxyechinenone of 10 mg/L, an Adonixanthin of 158 mg/L, an Astaxanthin of 805 mg/L and an Asteroidenone of 9 mg/L. Under setting [1], the Canthaxanthin turned out to be 101 mg/L, the Echinenone turned out to be 62 mg/L, the Phoenicoxanthin is on record as 217 mg/L and the “Total carotenoid” value turned out to be 1458 mg/L. Under setting [1], the Zeaxanthin is on record as 3 mg/L, the β-Carotene was 93 mg/L and the β-Cryptoxanthin is 0.5 mg/L.

(Values after patent US8993282B2, “Carotenoid fermentation method” (JX Nippon Oil & Energy Corporation, priority 2008, dated 2015).)
